The values that follow come from paper PMC4906375, “Contribution of Amphipathicity and Hydrophobicity to the Antimicrobial Activity and Cytotoxicity of β-Hairpin Peptides” (ACS Infectious Diseases, 2016).

One data set deals with P. aeruginosa ATCC 27853. The format is cell-based, Pseudomonas aeruginosa. As to conditions: ATCC 27853. Here is the method: Both antibacterial and antifungal MIC assays were performed by a broth microdilution plate based method as per CLSI guidelines for antimicrobial susceptibility testing.[53],[54] […] Full assay details are included in the Supporting Information with a full list of strains tested in Table S1.
Antibacterial assay (Minimum Inhibitory Concentration [MIC]).
MIC assay was performed by a broth microdilution plate based method as per CLSI guidelines for antimicrobial susceptibility testing of aerobic bacteria.1 Compounds were prepared at 1.28 mg/mL solution in water. The tested strains, Table S1, were cultured in Luria broth (LB) (In Vitro Technologies, USB75852), at 37 °C overnight. A sample of culture was then diluted 40Pfold in fresh Muller Hinton broth (MHB) (Bacto laboratories, 211443) and incubated at 37 °C for 1.5P2 h. The compounds were serially diluted twoPfold across the wells, with compound concentrations ranging from 0.015 µg/mL to 512 µg/mL, plated in duplicate. The resultant midPlog phase cultures were diluted to the final concentration of 1×10^6 CFU/mL, then 50 µL was added to each well of the compoundP containing 96Pwell plates (Corning 3641, NonPbinding Surface [NBS]), giving a final compound concentration range of 0.008 µg/mL to 256 µg/mL and 5x10^5 CFU/mL. All the plates were covered and incubated at 37 °C for 18 h. MICs were determined visually, being defined as the lowest concentration showing no visible growth. Resazurin was added at 0.001% final concentration to each well and incubated for 2 h before MICs were rePread for confirmation using the colour change from blue to pink to indicate wells containing viable cells. The resazurin assay was added in some wells where some form of precipitate was present in otherwise clear wells, making it difficult to ascertain which wells had visible […]
Antifungal assay (Minimum Inhibitory Concentration [MIC]). MIC assay was performed by a broth microdilution plate based method as per CLSI guidelines for antimicrobial susceptibility testing.2 Fungi strains, Table S1, were cultured for 3 days on Yeast ExtractPPeptone Dextrose (YPD) (SigmaPAldrich, Y1500) agar at 30 °C. A yeast suspension of 1x10^6 to 5x10^6 CFU/mL was prepared from five colonies. These stock suspensions were diluted with Yeast Nitrogen Base (YNB) (Becton Dickinson, 233520) broth to a final concentration of 2.5 ×10^3 CFU/mL. All samples, compounds and standards were plated in 96Pwell plates (Corning 3641, NonPbinding Surface [NBS]), by adding 10 µL of 1.28 mg/mL stock solution to each well and 90 µL of media. Then, the samples were serial diluted (1:2) in 12 concentrations across the plate. The standard antifungal ranged from 256

Data set [1] is described as follows: Cytotoxicity, Alamar Blue (resazurin) assay. The following applies: human. Type of data set: cell-based, human. As for the experimental part: Cytotoxicity to HEK293 and HepG2 cells was determined using the Alamar Blue (resazurin) assay,[55],[56] with 24 h of incubation and either 1 or 10% serum concentration. Full assay details are included in the Supporting Information.
Cytotoxicity. Cytotoxicity to HEK293 and HepG2 cells was determined using the Alamar Blue (resazurin) assay,3, 4 For the assays supplemented with 1 % FBS as final concentration the cells were seeded one day prior to the assay (3,000 per 20 µL for HEK293 and 4,000 per 20 µL for HepG2) with DMEM + 2 % FBS. The compounds were prepared as described below, using DMEM with no FBS instead to give the final FBS concentration of 1 %.
The highest concentration the compounds were tested was 300 µg/mL. A dilution series of 1:3 fold steps in DMEM (GIBCOPInvitrogen, cat. no. 11995P073) + 10 % FBS was created (concentration range of 600 µg/mL – 0.28 µg/mL), and 20 µL of these 2x concentrated compound dilutions were added in duplicates to wells of a black wall, clear bottom 384Pwells cell culture plate. For the assays with 1 % FBS the compounds in 0 % FBS were added to the existing cell plates in 2 % FBS. 200 µM Tamoxifen (Sigma T5648) served as negative control and in addition a serial dilution of tamoxifen, starting at 200 µM (74 µg/mL), was included as a dose response control (1 in 2 dilution series for tamoxifen). For the assay with 10 % FBS, HepG2 cells were seeded at 5000 cells per well, in a volume of 20 µL in DMEM medium + 10 % of FBS and added to the 20 µL of compound solution (total volume of 40 µL), resulting in a final compound concentration range of 300 µg/mL to 0.14 µg/mL.
Cells were incubated together with the compounds for 20 h at 37 °C, 5 % CO2.
After the incubation, 5 µL of 100 µM (25 µg/mL) resazurin dissolved in PBS (final concentration was approximately 11 µM) was added to each well. The plates were then incubated for 3 h at 37 °C, 5 % CO2. The fluorescence intensity was read using the TECAN Infinite M1000 PRO with excitation/emission 560/590. The data was analysed by Graph Pad Prism software. Results are presented as the average percentage of control ± SD for each set of duplicate wells using the following equation: Cell survival % = (FISAMPLE – FINegative/FIUNTREATED –FINegative)*100. (100 µg/mL tamoxifen was set as 0 % survival, media

Data set [2] deals with E. coli ATCC 25922 cytoplasmic membrane. As to the kind of experiment: Inner membrane permeability measured by SYTOX green fluorescence emission. The following applies: for permeabilisation of the E. coli cytoplasmic membrane at lethal concentrations: SYTOX green, E. coli ATCC 25922, 1 h.
Data set [3] in a line: Plasma protein binding, ultrafiltration. The following applies: 100% human plasma, read-out: PPB (%) (converted). Type of data set: in vitro ADME. As for the experimental part: Plasma protein binding was performed using an ultrafiltration method.[58]
Plasma protein binding assay
Plasma protein binding was performed using an Ultrafiltration method.13 Fresh frozen human plasma was pooled from O Negative (Product number 1274512) blood from the R & D division of the Australian Red Cross Blood Services (Brisbane). Stock solutions (20 mg/mL) of the test compounds were prepared in H2O. Test compounds (40 µg/mL) were incubated in 100 % human plasma at 37 °C for 30 min (1 mL volume). For unfiltered samples, an aliquot (50 µL) was removed, diluted with PBS (50 µL) and quenched with icePcold precipitating solution comprising 0.5 µM carbutamide MS internal standard in acetonitrile : methanol : formic acid (1: 1 : 0.001). Samples were incubated at 4 °C for 30 min then centrifuged at 14000 × g for 8 min, with the clear supernatant transferred to a vial for LC/MS/MS analysis.
For filtered samples, the plasma sample (250 µL) was filtered using Amicon UltraP0.5 Centrifugal Filter Devices 30K NMWL at 14000 × g for 7 min and then an aliquot (50 µL) was processed as described for unfiltered samples. The fraction of unbound compound was calculated by determining the concentration of the filtered sample and the concentration of unfiltered sample. All samples were performed in triplicate with sulfamethoxazole as a […]

Setting [4] is: HEK293 cells, HEK293, 1% FBS, read-out: cytotoxicity HEK293 1% FBS.
Where [5] appears, read: HEK293 cells, HEK293, 10% FBS, read-out: cytotoxicity HEK293 10% FBS.
Where [6] appears, read: HepG2 cells, HepG2, 1% FBS, read-out: cytotoxicity HepG2 1% FBS.
The mark [7] stands for this setting: HepG2 cells, HepG2, 10% FBS, read-out: cytotoxicity HepG2 10% FBS.

Molecules are shown by their SMILES. Values after ≈ are worked out from the molar mass of the structure shown. Read-outs that look alike come from different tables or passages of the source. Residues, ends and D or L forms follow the SMILES beside them.

For the compound `CC(C)[C@@H]1NC(=O)[C@H](CCCNC(=N)N)NC(=O)[C@H](Cc2ccccc2)NC(=O)[C@@H](NC(=O)[C@H](Cc2c[nH]c3ccccc23)NC(=O)[C@H](CCCNC(=N)N)NC(=O)[C@@H](N)CCCNC(=N)N)CSSC[C@@H](C(=O)N[C@@H](CCCNC(=N)N)C(N)=O)NC(=O)[C@H](CCCCN)NC(=O)[C@H](CCCNC(=N)N)NC(=O)[C@H](Cc2ccc(O)cc2)NC(=O)[C@@H]2CSSC[C@H](NC1=O)C(=O)N[C@@H](Cc1ccc(O)cc1)C(=O)N[C@@H](CCCNC(=N)N)C(=O)NCC(=O)N[C@@H](Cc1ccccc1)C(=O)N2` [polyphemusin-1] (HELM PEPTIDE1{R.R.W.C.F.R.V.C.Y.R.G.F.C.Y.R.K.C.R.[am]}$PEPTIDE1,PEPTIDE1,4:R3-17:R3|PEPTIDE1,PEPTIDE1,8:R3-13:R3$$$V2.0), the minimum inhibitory concentration (MIC) with P. aeruginosa ATCC 27853 was determined as 2 µg/mL (≈ 0.815 µM). Besides, the CC50 at 24 h in data set [1] (setting [4]) worked out at 36.6 ± 1.4 µg/mL (≈ 14.9 µM); in data set [1] (setting [5]), 188.5 ± 1.1 µg/mL (≈ 76.8 µM); in data set [1] (setting [6]) it was 36.5 ± 8.6 µg/mL (≈ 14.9 µM); in data set [1] (setting [7]), 254 ± 14.2 µg/mL (≈ 104 µM). Also, in data set [2], the “permeabilisation of the E. coli cytoplasmic membrane at lethal concentrations” value (shortened to “permeabilisation”) is recorded as “permeabilise”. Also, the “permeabilization concentration relative to MIC” value in data set [2] (same E. coli ATCC 25922 strain) is on record as “lower concentration than their MIC”. The fraction unbound in data set [3] is 0.37.
As for `CC[C@H](C)[C@H](NC(=O)[C@@H](NC(=O)[C@@H]1CCCN1C(=O)[C@@H](NC(=O)[C@@H]1CCCN1C(=O)[C@H](CCCCN)NC(=O)[C@H](CCCCN)NC(=O)[C@H](CO)NC(=O)CN)C(C)C)[C@@H](C)CC)C(=O)N[C@@H](Cc1ccc(O)cc1)C(=O)N[C@H]1CSSC[C@@H](C(=O)N[C@@H](CCC(N)=O)C(=O)N[C@@H](CCCNC(=N)N)C(=O)N[C@@H](CCSC)C(N)=O)NC(=O)[C@H](CCCCN)NC(=O)CNC(=O)[C@H]([C@@H](C)O)NC(=O)[C@H](CCCNC(=N)N)NC(=O)[C@H](CCCNC(=N)N)NC(=O)[C@H](CC(N)=O)NC1=O` [thanatin], the MIC against P. aeruginosa ATCC 27853 is 256 µg/mL (≈ 105 µM). Further, the CC50 at 24 h in data set [1] (setting [4]), in data set [1] (setting [5]), in data set [1] (setting [6]) and in data set [1] (setting [7]) was greater than 300 µg/mL throughout. Besides, the “permeabilisation” value in data set [2] is recorded as “does not permeabilise”. In data set [3], the fraction unbound was 0.08.
For the compound `[H][C@]12CSSC[C@]([H])(NC(=O)[C@]([H])([C@@H](C)CC)NC(=O)CNC(=O)[C@H](CCCNC(=N)N)NC(=O)[C@H](Cc3ccc(O)cc3)NC1=O)C(=O)N[C@@H](Cc1ccc(O)cc1)C(=O)N[C@@H](CCCNC(=N)N)C(=O)N[C@@H](CCCNC(=N)N)C(=O)N[C@H](C(=O)N[C@@H](CCCNC(=N)N)C(N)=O)CSSC[C@H](NC(=O)[C@H](Cc1c[nH]c3ccccc13)NC(=O)[C@@H](N)CCCCN)C(=O)N[C@@H](Cc1ccccc1)C(=O)N[C@@H](CCCNC(=N)N)C(=O)N[C@@H](C(C)C)C(=O)N2` [tachyplesin-1] (HELM PEPTIDE1{K.W.C.F.R.V.C.Y.R.G.I.C.Y.R.R.C.R.[am]}$PEPTIDE1,PEPTIDE1,3:R3-16:R3|PEPTIDE1,PEPTIDE1,7:R3-12:R3$$$V2.0), the MIC against P. aeruginosa ATCC 27853 was 0.25 µg/mL (≈ 0.11 µM). Moreover, the CC50 at 24 h in data set [1] (setting [4]) was 94.7 ± 1.1 µg/mL (≈ 41.8 µM); in data set [1] (setting [5]) it was greater than 300 µg/mL; in data set [1] (setting [6]), 65.7 ± 1.5 µg/mL (≈ 29 µM); in data set [1] (setting [7]) it was greater than 300 µg/mL. In data set [2], the “permeabilisation” value is on record as “permeabilise”. For the same compound, the fraction unbound in data set [3] was 0.24.
Regarding `CC(C)[C@@H]1NC(=O)CNC(=O)[C@H](CC(N)=O)NC(=O)[C@H](CCCNC(=N)N)NC(=O)[C@H](Cc2ccc(O)cc2)NC(=O)[C@H](C(C)C)NC(=O)[C@@H]2CSSC[C@H](NC(=O)[C@H](C(C)C)NC(=O)[C@H](CCCNC(=N)N)NC1=O)C(=O)N[C@@H](Cc1ccc(O)cc1)C(=O)N[C@@H](CCCNC(=N)N)C(=O)N[C@@H](CCCNC(=N)N)C(=O)N[C@H](C(=O)N[C@@H](CC(N)=O)C(=O)O)CSSC[C@H](NC(=O)[C@H](Cc1ccccc1)NC(=O)CN)C(=O)N[C@@H](Cc1c[nH]c3ccccc13)C(=O)N[C@@H](Cc1ccc(O)cc1)C(=O)N[C@@H](C(C)C)C(=O)N2` [arenicin-3] (HELM PEPTIDE1{G.F.C.W.Y.V.C.V.Y.R.N.G.V.R.V.C.Y.R.R.C.N}$PEPTIDE1,PEPTIDE1,3:R3-20:R3|PEPTIDE1,PEPTIDE1,7:R3-16:R3$$$V2.0), in the data set with P. aeruginosa ATCC 27853, the MIC worked out at 1 µg/mL (≈ 0.383 µM). Besides, the CC50 at 24 h in data set [1] (setting [4]) is 105 ± 1.8 µg/mL (≈ 40 µM); in data set [1] (setting [5]), greater than 300 µg/mL; in data set [1] (setting [6]), 95.2 ± 4.1 µg/mL (≈ 36.4 µM); in data set [1] (setting [7]), greater than 300 µg/mL. In data set [2], the “permeabilisation” value is on record as “permeabilise”. The fraction unbound in data set [3] is 0.32.
